From patent US5908868A, “Retinol derivatives useful for enhancing immune response” (priority 1995, dated 1999) come the findings set out here.

The subject of one test is lymph node T cells. The test is described as follows: Proliferation of anti-CD3 activated lymph node T cells. The test is classed as cell-based, BALB/c mouse. To be noted: anti-CD3. The source says: Growth curves of lymph node T cells depleted of antigen-presenting cells (FIG. 17A) with and without 10^-6 M retinol at 2×10^5 and 5×10^4 cells/well. (FIG. 17B) Dose-responses elicited by different retinoids in cultures of lymph node T cells depleted of antigen-presenting cells. Also shown are the growth curves of CD4^+ (FIG. 17C) and CD8^+ T lymphocytes (FIG. 17D) in the presence of either retinol, 14HRR, human serum or in their absence.
T lymphocytes, purified as described, 5×10^4 well, were activated with immobilized anti-CD3 antibody in ITLB medium. The indicated amounts of retinoids or human serum were added at initiation of cultures. […] 14HRR was added every 12 hours. DNA synthesis was measured by a 4 hour pulse with tritiated thymidine. SDs were ≤17%.
Mature T cells were obtained from pooled intestinal, axillary, inguinal and submandibular lymph nodes of 4 to 10-week-old BALB/c mice. To fractionate cells into CD4 and CD8 subsets and at the same time remove APC, a combination of adherence and complement lysis was used as follows:
Cells were cultured in serum-free medium, referred to as ITLB, containing RPMI 1640 supplemented with 8×10^-7 M insulin (5 μg/ml), 7×10^-8 M transferrin (5 μg/ml), 2×10^-6 M linoleic acid, 2×10^-6 M delipidated BSA (0.12 mg/ml), 2 mM L-glutamine, 1 mM sodium pyruvate and antibiotics. They were seeded into 96-well flat-bottom plates at varying cellular densities in a final volume of 100 μl. In control experiments, cells were cultured in medium containing 10% FCS or 3% human serum and 5×10^-5 M 2 ME. T cells and thymocytes were activated with immobilized, purified anti-mab CD3e or by the addition of Con A in the presence or absence of different concentrations of retinoids. Unless indicated otherwise, retinoids were replenished every 12 hours to maintain a reasonably constant concentration of these labile compounds in culture. The optimal concentration for stimulation of T cells was determined for each batch of anti-CD3 mAb and Con A. The optimal range of Con A was particularly narrow in serum-free medium (0.5-0.2 μg/ml) and varied with the cell density used. […] Cultures were carried out in duplicate. Plates were incubated at 37° C. in a humidified 5% CO2 atmosphere. Cellular proliferation was determined by [^3 H] thymidine uptake (0.5 uCi/well; New England Nuclear, Boston, Mass.) after the incubation times indicated for each experiment with a 4 hour labeling pulse. Cells were harvested onto glass filter and [^3 H]TdR incorporation was determined by liquid scintillation counting. The data presented are the means of duplicate or six replicate cultures. The restriction to duplicate measurements was necessary to conserve scarce 14HRR. They were within 20% of each other. Each experiment was repeated at least twice.

In the next test the test system is thymocytes. The test is described as follows: Proliferation of anti-CD3e activated thymocytes in serum-free medium. The test is classed as cell-based, BALB/c mouse. To be noted: for proliferative response: anti-CD3, retinol 3×10^-6 M or 14HRR 6×10^-7 M; for growth over a four day period: retinol 3×10^-6 M, 14HRR 6×10^-7 M, human serum 3%. As for the experimental part:
FIG. 14A: Purified BALB/c thymocytes were activated with immobilized anti-CD3e antibody and cultivated for four days in ITLB medium with or without retinol (3×10^-6 M), 14HRR (6×10^-7 M) (fresh 14HRR was added every 12 hours), human serum (3%) or FCS (10%) at the cellular densities shown. Proliferation was assayed by tritiated thymidine incorporation into cellular DNA. The SDs were below 20%.
FIG. 14B: BALB/c thymocytes (10^6 /ml) were added to microtiter plates coated with titrated amounts of anti-CD3e antibody with […] retinol or without, as indicated. Proliferation was measured in hexaduplicate wells on day 3 by ^3 H thymidine incorporation assay.
FIG. 14C: BALB/c thymocytes (3×10^6 /ml) were activated with anti-CD3e mAb as FIG. 1A. The total number of viable cells was determined by counting trypan blue-excluding cells, and those of blast cells by counting viable large cells in six replicate wells. Because of the relatively low cell density required in the culture (see FIG. 14A), the numbers reported for blast cells are best estimates.
Purified thymocytes (5×10^5 cells/well) were stimulated by TCR crosslinking with immobilized anti-CD3e antibody (FIG. 15A) or 0.4 μg/ml Con A (FIG. 15B) in serum-free ITLB medium. The indicated amounts of retinoids were added either once at the beginning of the experiment (marked as "1x") or every 12 hours thereafter (marked as "6x"). DNA synthesis was measured after 72 hours by tritiated thymidine uptake as described.
Purified thymocytes (10^5 cells/well) were activated with anti-CD3 antibody in ITLB medium with or without retinol (3×10^-6 M), 14HRR (6×10^-7, added every 12 hours or human serum (3%)). DNA synthesis was measured daily by a 4 hour pulse of tritiated thymidine. SDs were ≤12%.
Thymocytes (5×10^4 /well) were activated by immobilized anti-CD3 mAb in medium ITLB. Retinol (2×10^-6 M) was added at initiation of culture, or delayed by 12 hours and 24 hours, respectively, or omitted altogether. ^3 H thymidine pulses of 4 hours were used to measure DNA synthesis of hexaduplicate wells. (SDs were 20% or less.)
Thymuses of 3 to 6-week-old BALB/c mice were teased in serum-free RPMI medium supplemented with 1% BSA, 10^-6 M linoleic acid and antibiotics. Depletion of accessory cells was achieved by two cycles of complement-dependent lysis with a mixture of anti-IA^d (5 μg/ml) and anti-Itd (1:500 diluted ascites fluid). Briefly, cells were incubated on ice for 30 minutes with Ia antibodies, spun down, resuspended in 1:40 diluted rabbit complement, and incubated at 37° C. for 45 minutes. Incubations and two subsequent washes were carried out with RPMI medium containing 1% BSA. Cell viability was evaluated by trypan blue dye exclusion. To determine the extent of depletion of accessory cells, samples were stained with FITC-conjugated anti-Fc receptor antibody and analyzed by flow cytometry on a FACScan instrument (Becton Dickinson). No FcR-bearing cells were detected by this procedure.
Cells were cultured in serum-free medium, referred to as ITLB, containing RPMI 1640 supplemented with 8×10^-7 M insulin (5 μg/ml), 7×10^-8 M transferrin (5 μg/ml), 2×10^-6 M linoleic acid, 2×10^-6 M delipidated BSA (0.12 mg/ml), 2 mM L-glutamine, 1 mM sodium pyruvate and antibiotics. They were seeded into 96-well flat-bottom plates at varying cellular densities in a final volume of 100 μl. In control experiments, cells were cultured in medium containing 10% FCS or 3% human serum and 5×10^-5 M 2 ME. T cells and thymocytes were activated with immobilized, purified anti-mab CD3e or by the addition of Con A in the presence or absence of different concentrations of retinoids. Unless indicated otherwise, retinoids were replenished every 12 hours to maintain a reasonably constant concentration of these labile compounds in culture. […]

Entries after “also recorded” stand apart in the source; their conditions may differ.

On to `CC(C=CC=C(C)C(O)CO)=CC=C1C(C)=CCCC1(C)C` (centres unmarked) [14HRR, 14-hydroxy-4,14-retro-retinol], for which, in the test with lymph node T cells, the “stimulation of lymph node T cells” value is recorded as “effective over the same dose range as observed for thymocytes”. In addition, in the test with thymocytes, the proliferative response entry is “vigorous responses were elicited” and the “growth over a four day period” value is reported as “exponential growth”. Further, in the test on thymocytes (provided at 12 hour intervals), the “potency relative to retinol in supporting T cell proliferation” value is recorded as “as potent as retinol”. Moreover, the “effect of a single addition at initiation of culture” value with thymocytes (single addition) was “ineffective; also recorded: does not enable sustained proliferation; also recorded: insufficient to drive T cell proliferation”.

Consider `CC1=C(/C=C/C(C)=C/C=C/C(C)=C/CO)C(C)(C)CCC1` [retinol, all-trans retinol], for which the “stimulation of lymph node T cells” value with lymph node T cells was “dependent on the presence of retinol”. Moreover, in the test on thymocytes, the proliferative response result is reported as “vigorous responses were elicited” and the “growth over a four day period” value is recorded as “exponential growth”. Besides, in the test with thymocytes (no delay), the “response when supplied together with activation signal” value was “highest responses”. Further, the “reduction of sufficient retinol concentration on repeated feeding” value with thymocytes (replenished twice daily, 3-day culture) is reported as “five- to ten-fold lower”. Moreover, the viability entry with thymocytes (retinol by itself) is given as “maintain a higher state of viability than anti-CD3e "only" stimulation, or omission of test reagents altogether”. Besides, the “effect of 12-hour delay in addition” value in the test with thymocytes (retinol delayed 12 hours) is on record as “stagnation”. In the test with thymocytes (retinol delayed by 24 hours), the “effect of delayed addition” value is on record as “complete failure of activation”. The T cell activation entry with thymocytes (retinol on its own) is recorded as “no discernible T cell activation”.
